Experimental data: article PMC6467921, “Biosynthesis of DHGA12 and its roles in Arabidopsis seedling establishment” (Nature Communications, 2019)

How the values were obtained:
GID1c = target: T1, GID1c (Arabidopsis thaliana, UniProt Q940G6); test: microscale thermophoresis (MST), NT-647-labeled GST-GID1c; assay type: binding
T1 construct: glutathione S-transferase (GST)-tagged GID1c
T1 sequence (Q940G6 2-344): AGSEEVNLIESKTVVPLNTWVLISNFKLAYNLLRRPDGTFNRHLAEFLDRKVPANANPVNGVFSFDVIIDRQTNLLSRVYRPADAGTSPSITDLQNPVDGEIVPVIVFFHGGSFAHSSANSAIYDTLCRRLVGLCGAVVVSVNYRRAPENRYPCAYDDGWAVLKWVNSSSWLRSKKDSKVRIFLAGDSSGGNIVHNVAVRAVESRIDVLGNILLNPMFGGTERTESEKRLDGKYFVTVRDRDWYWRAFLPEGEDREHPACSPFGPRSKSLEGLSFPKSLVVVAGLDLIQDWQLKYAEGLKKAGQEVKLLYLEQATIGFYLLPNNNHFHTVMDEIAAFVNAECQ

GAS2 = target: T2, GAS2 (Arabidopsis thaliana, UniProt F4INZ9); test: product of in vitro GAS2 reaction identified by LC-MS, compared with synthetic standard; assay type: biochemical
T2 construct: gene GIM2; recombinant purified GAS2
T2 sequence (F4INZ9 1-366): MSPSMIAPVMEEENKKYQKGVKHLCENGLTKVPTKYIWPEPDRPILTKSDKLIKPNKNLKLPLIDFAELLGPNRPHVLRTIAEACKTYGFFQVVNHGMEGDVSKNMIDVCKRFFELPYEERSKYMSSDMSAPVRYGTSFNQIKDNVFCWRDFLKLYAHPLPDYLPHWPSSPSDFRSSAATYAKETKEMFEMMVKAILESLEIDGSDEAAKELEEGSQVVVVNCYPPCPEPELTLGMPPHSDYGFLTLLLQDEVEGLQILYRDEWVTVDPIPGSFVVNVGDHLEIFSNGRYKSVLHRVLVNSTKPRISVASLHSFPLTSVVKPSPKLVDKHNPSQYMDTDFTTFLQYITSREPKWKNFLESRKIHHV

| SMILES | Kd (GID1c) [nM] | product of in vitro GAS2 reaction identified by LC-MS, compared with synthetic s (GAS2) |
| --- | --- | --- |
| C=C1C[C@]23C[C@H]1CC[C@H]2[C@@]12CC[C@H](O)[C@@](C)(C(=O)O1)[C@H]2[C@@H]3C(=O)O [GA4] | 680 ± 120 |  |
| C[C@@]12CCC[C@@](C)(C(=O)O)[C@H]1[C@H](C(=O)O)[C@@]13C[C@@H](CC[C@@H]21)[C@](C)(O)C3 [DHGA12] | 1450 ± 250 | Our data demonstrate that GAS2 exhibits hydration activity using GA12 as a substrate to produce DHGA12. |
